According to the supplement of paper PMC10307832:

What was measured:
Assay in all cases: relative viability (nuclei count vs DMSO), 5 days (fraction); higher = more cells survive
NCI-H1944 = test system: NCI-H1944
In short: (§1)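 A single step with final 0.05% Triton X-100, 1% formaldehyde and 1 ug/ml Hoechst fixed the cells and stained nuclei 5 days after treatment. Lung cancer cell lines in 1536-well plates had been treated by pin tool the day after seeding with one drug alone or a fixed anchor-drug dose plus five library-drug doses (not always all listed) in √10 steps, and nuclei were counted on 4× images. Relative viability is the ratio of nuclei in treated wells to nuclei in vehicle wells, taken as the median of duplicate plates.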

NCI-H520 = test system: NCI-H520
In short: as §1

HCC-827 = test system: HCC-827
In short: as §1

EMC-BAC-2 = test system: EMC-BAC-2
In short: as §1

NCI-H1563 = test system: NCI-H1563
In short: as §1

LCLC-97TM1 = test system: LCLC-97TM1
In short: as §1

NCI-H2085 = test system: NCI-H2085
In short: as §1

NCI-H23 = test system: NCI-H23
In short: as §1

HCC-44 = test system: HCC-44
In short: as §1

NCI-H650 = test system: NCI-H650
In short: as §1

NCI-H1993 = test system: NCI-H1993
In short: as §1

NCI-H1793 = test system: NCI-H1793
In short: as §1

NCI-H2087 = test system: NCI-H2087
In short: as §1

NCI-H322M = test system: NCI-H322M
In short: as §1

EPLC-272H = test system: EPLC-272H
In short: as §1

NCI-H1355 = test system: NCI-H1355
In short: as §1

H3255 = test system: H3255
In short: as §1

NCI-H2405 = test system: NCI-H2405
In short: as §1

UMC-11 = test system: UMC-11
In short: as §1

LCLC-103H = test system: LCLC-103H
In short: as §1

SK-MES-1 = test system: SK-MES-1
In short: as §1

NCI-H1651 = test system: NCI-H1651
In short: as §1

NCI-H1395 = test system: NCI-H1395
In short: as §1

COc1cc(N2CCC(C(N)=O)CC2)ccc1Nc1nc(N)c(Cl)c(Nc2ccccc2S(=O)(=O)C(C)C)n1 [HG-5-88-01] + Cc1nc(NC(=O)N2CCC[C@H]2C(N)=O)sc1-c1ccnc(C(C)(C)C(F)(F)F)c1 [Alpelisib] (partner 2 µM)
relative viability (NCI-H1944; first compound 0.04 µM): 0.801
relative viability (NCI-H1944; first compound 0.1265 µM): 0.833
relative viability (NCI-H1944; first compound 0.4 µM): 1.01
relative viability (NCI-H1944; first compound 1.265 µM): 0.71
relative viability (NCI-H1944; first compound 4 µM): 0.844
relative viability (NCI-H520; first compound 0.04 µM): 0.85
relative viability (NCI-H520; first compound 0.1265 µM): 0.94
relative viability (NCI-H520; first compound 0.4 µM): 0.884
relative viability (NCI-H520; first compound 1.265 µM): 1.01
relative viability (NCI-H520; first compound 4 µM): 1.03
relative viability (HCC-827; first compound 0.04 µM): 1.04
relative viability (HCC-827; first compound 0.1265 µM): 1.01
relative viability (HCC-827; first compound 0.4 µM): 1.05
relative viability (HCC-827; first compound 1.265 µM): 0.849
relative viability (HCC-827; first compound 4 µM): 0.353
relative viability (EMC-BAC-2; first compound 0.04 µM): 0.729
relative viability (EMC-BAC-2; first compound 0.1265 µM): 0.757
relative viability (EMC-BAC-2; first compound 0.4 µM): 0.723
relative viability (EMC-BAC-2; first compound 1.265 µM): 0.703
relative viability (EMC-BAC-2; first compound 4 µM): 0.628
relative viability (NCI-H1563; first compound 0.04 µM): 1.05
relative viability (NCI-H1563; first compound 0.1265 µM): 0.877
relative viability (NCI-H1563; first compound 0.4 µM): 0.909
relative viability (NCI-H1563; first compound 1.265 µM): 0.844
relative viability (NCI-H1563; first compound 4 µM): 0.993
relative viability (LCLC-97TM1; first compound 0.04 µM): 0.264
relative viability (LCLC-97TM1; first compound 0.1265 µM): 0.217
relative viability (LCLC-97TM1; first compound 0.4 µM): 0.198
relative viability (LCLC-97TM1; first compound 1.265 µM): 0.196
relative viability (LCLC-97TM1; first compound 4 µM): 0.142
relative viability (NCI-H2085; first compound 0.04 µM): 1.05
relative viability (NCI-H2085; first compound 0.1265 µM): 1
relative viability (NCI-H2085; first compound 0.4 µM): 0.908
relative viability (NCI-H2085; first compound 1.265 µM): 0.973
relative viability (NCI-H2085; first compound 4 µM): 0.902
relative viability (NCI-H23; first compound 0.04 µM): 0.832
relative viability (NCI-H23; first compound 0.1265 µM): 0.738
relative viability (NCI-H23; first compound 0.4 µM): 0.67
relative viability (NCI-H23; first compound 1.265 µM): 0.847
relative viability (NCI-H23; first compound 4 µM): 0.496
relative viability (HCC-44; first compound 0.04 µM): 0.858
relative viability (HCC-44; first compound 0.1265 µM): 0.824
relative viability (HCC-44; first compound 0.4 µM): 0.701
relative viability (HCC-44; first compound 1.265 µM): 0.68
relative viability (HCC-44; first compound 4 µM): 0.471
relative viability (NCI-H650; first compound 0.04 µM): 0.689
relative viability (NCI-H650; first compound 0.1265 µM): 1.18
relative viability (NCI-H650; first compound 0.4 µM): 1.04
relative viability (NCI-H650; first compound 1.265 µM): 0.816
relative viability (NCI-H650; first compound 4 µM): 0.8
relative viability (NCI-H1993; first compound 0.04 µM): 0.709
relative viability (NCI-H1993; first compound 0.1265 µM): 0.596
relative viability (NCI-H1993; first compound 0.4 µM): 0.566
relative viability (NCI-H1993; first compound 1.265 µM): 0.682
relative viability (NCI-H1993; first compound 4 µM): 0.751
relative viability (NCI-H1793; first compound 0.1265 µM): 0.613
relative viability (NCI-H1793; first compound 0.4 µM): 0.912
relative viability (NCI-H1793; first compound 1.265 µM): 0.45
relative viability (NCI-H1793; first compound 4 µM): 0.723
relative viability (NCI-H2087; first compound 0.04 µM): 0.967
relative viability (NCI-H2087; first compound 0.1265 µM): 1.17
relative viability (NCI-H2087; first compound 0.4 µM): 0.997
relative viability (NCI-H2087; first compound 1.265 µM): 1.04
relative viability (NCI-H2087; first compound 4 µM): 0.974
relative viability (NCI-H322M; first compound 0.04 µM): 0.774
relative viability (NCI-H322M; first compound 0.1265 µM): 0.841
relative viability (NCI-H322M; first compound 0.4 µM): 0.903
relative viability (NCI-H322M; first compound 1.265 µM): 0.726
relative viability (NCI-H322M; first compound 4 µM): 0.639
relative viability (EPLC-272H; first compound 0.04 µM): 0.931
relative viability (EPLC-272H; first compound 0.1265 µM): 0.838
relative viability (EPLC-272H; first compound 0.4 µM): 1.12
relative viability (EPLC-272H; first compound 1.265 µM): 0.804
relative viability (EPLC-272H; first compound 4 µM): 0.253
relative viability (NCI-H1355; first compound 0.04 µM): 0.881
relative viability (NCI-H1355; first compound 0.1265 µM): 0.934
relative viability (NCI-H1355; first compound 0.4 µM): 0.775
relative viability (NCI-H1355; first compound 1.265 µM): 0.767
relative viability (NCI-H1355; first compound 4 µM): 0.737
relative viability (H3255; first compound 0.04 µM): 0.714
relative viability (H3255; first compound 0.1265 µM): 0.63
relative viability (H3255; first compound 0.4 µM): 0.645
relative viability (H3255; first compound 4 µM): 0.422
relative viability (NCI-H2405; first compound 0.04 µM): 0.749
relative viability (NCI-H2405; first compound 0.1265 µM): 0.832
relative viability (NCI-H2405; first compound 0.4 µM): 0.726
relative viability (NCI-H2405; first compound 1.265 µM): 0.418
relative viability (NCI-H2405; first compound 4 µM): 0.794
relative viability (UMC-11; first compound 0.04 µM): 1.01
relative viability (UMC-11; first compound 0.1265 µM): 1
relative viability (UMC-11; first compound 0.4 µM): 0.998
relative viability (UMC-11; first compound 1.265 µM): 0.945
relative viability (UMC-11; first compound 4 µM): 0.954
relative viability (LCLC-103H; first compound 0.04 µM): 0.938
relative viability (LCLC-103H; first compound 0.1265 µM): 0.968
relative viability (LCLC-103H; first compound 0.4 µM): 0.949
relative viability (LCLC-103H; first compound 1.265 µM): 0.907
relative viability (LCLC-103H; first compound 4 µM): 1.2
relative viability (SK-MES-1; first compound 0.04 µM): 0.925
relative viability (SK-MES-1; first compound 0.1265 µM): 0.582
relative viability (SK-MES-1; first compound 0.4 µM): 1.07
relative viability (SK-MES-1; first compound 1.265 µM): 0.941
relative viability (SK-MES-1; first compound 4 µM): 0.86
relative viability (NCI-H1651; first compound 0.04 µM): 0.927
relative viability (NCI-H1651; first compound 0.1265 µM): 1
relative viability (NCI-H1651; first compound 0.4 µM): 0.962
relative viability (NCI-H1651; first compound 1.265 µM): 0.906
relative viability (NCI-H1651; first compound 4 µM): 1.2
relative viability (NCI-H1395; first compound 0.04 µM): 1.09
relative viability (NCI-H1395; first compound 0.1265 µM): 1.06
relative viability (NCI-H1395; first compound 0.4 µM): 1.1
relative viability (NCI-H1395; first compound 1.265 µM): 0.909
relative viability (NCI-H1395; first compound 4 µM): 0.986
